Results: patent publication US6537797B1, “Compositions and methods useful in bioremediation of polychlorinated biphenyls” (Indiana University, Advanced Research and Technology …, priority 1999, dated 2003)
“Also recorded” adds a separate entry of the source.

Key:
Type in all cases: cell-based
[1] = system: bacterial strain SK-2; assay: Growth of SK-2 on 3,4-DCBP as sole carbon source and its degradation
Procedure: Growth of bacterial strains SK-1 and SK-2 on 2,3-DCBP and 3,4-DCBP, respectively, as a sole carbon source was determined using direct counting and an acridine orange staining method. This method involves filtering 0.1 milliliters of culture through a 0.45 micron filter, staining the cells on the filter using a 0.01% acridine orange solution for 3 to 5 minutes, and counting cells on the filter using an epifluorescent microscope at a 1000′ magnification. SK-1+ contained 2,3-dichlorobiphenyl; SK-2+ contained 3,4-dichlorobiphenyl. Control bottles in each case were identical to experimental bottles in that they were inoculated with the cultures but they lacked the appropriate congener. The initial concentration of PCBs was 500 ppm (w/v). The cell numbers of the two isolates increased by 1.5 orders of magnitude in the presence of the DCBPs used as a growth substrate. The degradation of 2,3-DCBP by SK-1 and production of 2,3-dichlorobenzoate is depicted in FIG. 3. The degradation of 3,4-DCBP by SK-2 and production of 3,4-dichlorobenzoate is depicted in FIG. 4.
(§1) The concentrations of chlorobenzoates and dichlorobiphenyls were assessed after hexane extraction of bottles using gas chromatography analysis of the extracts with an electron capture detector. Chlorobenzoates were analyzed using standard columns after derivitization with pentafluorobenzyl bromide. Dichlorobiphenyls were analyzed using a DB-5 column (J&W Scientific, Fulsom, Calif.).
The data shown in FIGS. 2, 3 and 4 illustrates the nearly complete disappearance of both 2,3-DCBP (0.38 mM initial concentration, FIG. 3) and 3,4-DCBP (0.3 mM initial concentration, FIG. 4) within 10 days of incubation. Duplicate bottles were used and error bars of the pictures represent a standard deviation. Controls contained DCBPs but lacked inoculum. DCBPs were supplied in the bottles using the non-biodegradable carrier heptamethylnonane (HMN).

[2] = system: bacterial strain SK-3; assay: Growth substrate tests in liquid medium; conditions: initial concentration 100 parts per million, except chlorobenzoate 2-3 millimolar
Procedure: (§2) The ability of the four isolated strains to grow on selected polychlorobiphenyls as a sole carbon source was assessed.
(§3) (All tests were conducted in a liquid medium. The initial concentration of the organic substrate was 100 parts per million, except chlorobenzoate, which was 2-3 millimolar).

[3] = system: bacterial strain SK-4; assay: Growth substrate tests in liquid medium; conditions: initial concentration 100 parts per million, except chlorobenzoate 2-3 millimolar
Procedure: as §2, §3

[4] = system: bacterial strain SK-1; assay: Growth substrate tests in liquid medium; conditions: initial concentration 100 parts per million, except chlorobenzoate 2-3 millimolar
Procedure: as §2, §3

[5] = system: bacterial strain SK-2; assay: Growth substrate tests in liquid medium; conditions: initial concentration 100 parts per million, except chlorobenzoate 2-3 millimolar
Procedure: as §2, §3

[6] = system: bacterial strain SK-4; assay: Characterization of SK-4: growth on and degradation of 2,2′-DCBP and 2,4′-DCBP
Procedure: The same methods for determining concentrations of analytes and for the incubation of the bacterial strain with growth substrate described herein for the previous analyses were used in the experiments to characterize SK-4. The concentration of SK-4 cells in the experiments was 1.5×10^7 cells per milliliter and the concentration of 2,2′-DCBP or 2,4′-DCBP was 100 milligrams per liter. […] Ortho-substituted congeners are common degradation products of anaerobic reductive dechlorination of more highly chlorinated PCBs (PCBs comprising more than two chlorine atoms) by anaerobic bacteria.
2,2′-DCBP was supplied at a concentration of 100 milligrams per liter dissolved in heptamethyl nonane (HMN), a non-biodegradable PCB solvent. Controls contained HMN but lacked 2,2′-DCBP.

[7] = system: bacterial strain SK-3; assay: Characterization of SK-3: growth on and degradation of chlorobiphenyls and chlorobenzoates
Procedure: as §1
The results from this experiment are depicted in FIG. 5.
The growth of SK-3 on 4-chlorobiphenyl (4-CB) was compared with growth on its non-chlorinated form, biphenyl. […] The results from this experiment are depicted in FIG. 6. The concentration of chloride ion was determined using ion chromatography on a standard Dionex ion chromatography column. The concentration of 4-CB was assessed after hexane extraction of bottles by analyzing the hexane extracts using gas chromatography on a DB-5 column (J&W Scientific, Fulsom, Calif.) and an electron capture detector.
The growth of SK-3 on chlorobenzoates was assessed. […] The results from this experiment are depicted in FIG. 7.
The degradation of three different monochlorobiphenyls, (2-CB, 3-CB, and 4-CB) by SK-3 was assessed at 23° C. under aerobic conditions on a shaker table. After incubation of SK-3 with the selected monochlorobiphenyl for 88 hours, the concentrations of chloride and the corresponding chlorobenzoic acids (CBA) was assessed as described herein. The results from this experiment are depicted in FIG. 8.
The growth of SK-3 on dichloro-biphenyls was also assessed. […] The results of this experiment are depicted in FIG. 9.

[8] = system: bacterial strain SK-3; assay: Biodegradation of commercial PCB mixture Aroclor 1242 as sole carbon source; conditions: 12 days; benzoate-grown washed cells; no cosubstrate; GC
Procedure: In addition to testing the ability to use a single PCB congener as a sole carbon source (as described in Example 1), several strains of the isolated bacteria of the invention (SK-1, SK-2, SK-3 and SK-4) were tested for the ability to degrade low chlorinated PCB congeners (dichlorobiphenyls and trichlorobiphenyls) of a commercial PCB mixture in the absence of biphenyl or any other cometabolic substrate as a carbon source.
The ability of SK-1, SK-2, SK-3 and SK-4 to degrade Aroclor® 1242 was assessed using cells which were grown on benzoate and then washed. Briefly, the cells were washed by centrifuging the cells, decanting the supernatant, resuspending the cells in fresh medium, then pelleting the cells using centrifugation again and decanting the supernatant to remove residual benzoate and other carbon sources. Aroclor® 1242 was the sole carbon source provided to the cells.
The degradation of Aroclor® 1242 by SK-3 was monitored using gas is chromatography analysis and the results are depicted in FIG. 12. […] The degraded PCB congeners were identified as follows: Peak #1 was 2,5-DCBP or 2,4-DCBP; Peak #2 was 2,3′-DCBP; and Peak #3 was 2,4′-DCBP. No significant degradation of any PCB congener containing three or more chlorine atoms was observed.

[9] = 1.5×10^7 cells per milliliter, substrate in heptamethyl nonane

**Q.** `O=C(O)c1ccc(Cl)c(Cl)c1` [3,4-dichlorobenzoate] was tested. Which “Time at which concentration of chlorobenzoate produced from 3,4-DCBP by SK-2 reached a maximum, then decreased” value ([1]; 0.3 mM 3,4-DCBP initial concentration) did it give?
**A.** The value was 90 h.

**Q.** What about the “Growth of SK-3 on the substrate as sole carbon source” value (“Growth of SK-3 on the substrate” for short) [2] of the same compound?
**A.** Its value is “No”.

**Q.** And the “Growth of SK-4 on the substrate as sole carbon source” value (“Growth of SK-4 on the substrate” below) [3]?
**A.** The value was “No”.

**Q.** Which “Time to nearly complete disappearance” value ([1]; SK-2, 0.3 mM initial concentration, supplied in heptamethylnonane) does the source give for `Clc1ccc(-c2ccccc2)cc1Cl` [3,4-DCBP, 3,4-dichlorobiphenyl] here?
**A.** The value was ≤ 10 days.

**Q.** What about the “Increase of cell numbers in the presence of the DCBP as growth substrate” value ([1]; SK-2, initial concentration 500 ppm (w/v), acridine orange direct counting) of the same compound?
**A.** The value was 1.5 orders of magnitude.

**Q.** And the “Growth of SK-3 on the substrate” value [2]?
**A.** The value was “No”.

**Q.** What about the “Growth of SK-1 on the substrate as sole carbon source” value [4] of the same compound?
**A.** Its value is “No”.

**Q.** What about the “Growth of SK-2 on the substrate as sole carbon source” value [5] of the same compound?
**A.** Its value is “exhibited growth and Yes”.

**Q.** What about the “Growth of SK-4 on the substrate” value [3] of the same compound?
**A.** The value was “No”.

**Q.** Which results are given for `Clc1ccc(-c2ccccc2Cl)cc1` [2,4′-DCBP, 2,4′-dichlorobiphenyl]?
**A.** Growth of SK-4 on the substrate as sole carbon source ([6]; 1.5×10^7 cells per milliliter, 100 milligrams per liter): growth; also recorded: ability to grow rapidly; Chloride release on degradation by SK-4 [6, 9]: production of chloride; Chlorobenzoate production on degradation by SK-4 [6, 9]: stoichiometric accumulation of a chlorobenzoate; Doubling time of SK-4 grown on the substrate ([6]; concentration 0.42 mM, sole carbon source): ~17 h; Growth of SK-3 on the substrate as sole carbon source [7]: able to grow; Doubling time of SK-3 grown on the substrate ([7]; concentration 0.27 mM, sole carbon source): approximately 43 hours; Extent of chloride production by SK-3 ([7]; growth on 0.27 mM 2,4′-DCBP): 0.49 mM; Production of chlorobenzoates (2-CBA, 4-CBA) during growth of SK-3 ([7]; growth on 2,4′-DCBP): not detected; Degradation of PCB congeners of Aroclor 1242 by SK-3 [8]: degraded; Growth of SK-3 on the substrate as sole carbon source [2]: exhibited growth and Yes; Growth of SK-1 on the substrate as sole carbon source [4]: Yes; Growth of SK-2 on the substrate as sole carbon source [5]: Unlikely; Growth of SK-4 on the substrate as sole carbon source [3]: exhibited growth and Yes

**Q.** For `Clc1cccc(-c2ccccc2Cl)c1` [2,3′-DCBP], which “Degradation of PCB congeners of Aroclor 1242 by SK-3” value [8] is on record?
**A.** Its value is “degraded”.

**Q.** And the “Growth of SK-3 on the substrate” value [2]?
**A.** The value was “No”.

**Q.** And the “Growth of SK-1 on the substrate as sole carbon source” value [4]?
**A.** Its value is “No”.

**Q.** And the “Growth of SK-2 on the substrate as sole carbon source” value [5]?
**A.** Its value is “No”.

**Q.** What about the “Growth of SK-4 on the substrate” value [3] of the same compound?
**A.** The value was “No”.
